A melting point compilation (Tetko et al.; mined from patent text by program, amines drawn as free bases though some values may be those of a salt)

melting point	SMILES
121 to 124 °C	COc1ccc(C2=NN(Cc3ccncc3)C(=O)[C@H]3CC=CC[C@@H]23)cc1OC (relative stereo)
69 to 70 °C	CC(C)(C)OC(=O)NCCCCC(=O)NCCC(=O)OCc1ccccc1
127 to 131 °C	CNC(=O)CC(C#Cc1ccccc1)c1ccc(OC)c(OC2CCCC2)c1 (racemic)
125 to 132 °C	CC(C(=O)O)c1ccc(C=C2CCCC2O)cc1 (stereo not given)
148 °C	COC(=O)c1cc([N+](=O)[O-])c(-c2ccccc2)c([N+](=O)[O-])c1
107 to 109 °C	O=S1(=O)NCN(CCF)c2cc(F)ccc21
141 to 143 °C	CCOC(=O)C(C)(C)OC(=O)c1cc(-n2c(=O)cc(C(F)(F)C(F)(F)F)[nH]c2=O)ccc1Cl
224 to 225 °C	COc1ccc2c(c1)C(CC(=O)O)=C(C)C2=Cc1ccc(S(N)(=O)=O)cc1
202 to 205 °C	Cc1nc(NC(=O)NS(=O)(=O)c2ccccc2[N+](=O)[O-])nc2c1CCC2
89 to 91 °C	Cc1cccc(Cl)c1N1CCCN(C2CCC2)C1=S
218 °C	O=C1CNC(=O)[C@@H](CO)N1
91 to 94 °C	C/C(O)=C(\C#N)C(=O)Sc1ccc(Cl)cc1
126 to 128 °C	CCc1oc2ccc(Cl)cc2c1C(=O)c1cc(Br)c(O)c(Br)c1
213 °C	O=C(O)Cc1cc(C(=O)c2ccc([N+](=O)[O-])cc2)ccc1O
167 to 170 °C	CCOC(=O)c1c(=O)c2cc(F)c(N3CCN(C)CC3)cc2n2ccccc12
49 to 51 °C	CC(=C(Cl)Cl)c1ccccc1Nc1ccccc1C
147 to 148 °C	C=CCN1C(=O)C2CCc3c(ccc(OC)c3OC)C2C1=O (stereo not given)
122 to 123 °C	CSc1ccc(-c2c(C#N)cnn2-c2ccc(F)cc2)cc1
> 230 °C	CCCCCCC(CCCCCC)N1C(=O)c2ccc3c4cccc5c(NC(C)=O)ccc(c6ccc(c2c36)C1=O)c54
208 to 211 °C	CC(=O)Nc1nc2ccnc(-c3cccc(NS(=O)(=O)c4ccc(C)cc4)c3)n2n1

melting point	SMILES
138 to 139 °C	COC(=O)c1ccc(NC(=O)c2ccccc2Cc2ccccc2)cc1
206 to 209 °C	COc1ccc(/C=C/C(=O)Nc2ccccc2C(=O)OCC(=O)O)cc1OC
98 to 99 °C	CC(C)c1cc(OCCOCc2ccccc2)cc2c1C(=O)N(CSc1ccccc1)S2(=O)=O
185 to 186 °C	CC1(C)CN(C2CCN(c3cc(Cl)cc(Cl)c3)C2=O)C1=O (stereo not given)
211 to 213 °C	CC(C)=NOCc1nc2c(N)nc3cc(Br)ccc3c2s1
196 °C	O=C(c1ccc(Cl)cc1)c1cc(-c2cccnc2)c(N2CCOCC2)s1
99 to 100 °C	CCOC(=O)c1cn(-c2ccc(C(F)(F)F)cn2)nc1C1CCCCC1
105 to 106 °C	CN(C)C(=O)c1ccc(CNC(=O)C2Cc3ccccc3N2S(=O)(=O)c2ccc(-c3ccccc3C(F)(F)F)cc2)cc1 (stereo not given)
251 to 255 °C	N#CC(Nc1ccc(SSc2ccc(NC(C#N)c3ccc(S(N)(=O)=O)cc3)cc2)cc1)c1ccc(S(N)(=O)=O)cc1 (stereo not given)
103 to 105 °C	CC(C)(C)OC(=O)NCCNC(=O)c1ncccc1N
93 to 94 °C	COc1cc(Cc2cnc(CCCOc3cccc(CN4CCCCC4)c3)[nH]c2=O)ccn1
64.6 to 67.2 °C	C=CC(C)OC(=O)c1c(C)nc2c(cnn2CCCCC)c1N (stereo not given)
83 to 85 °C	CCOC(=O)COc1cc2c(c(Cl)c1Cl)C(=O)C(C)(C(C)C)C2Br (stereo not given)
224 to 226 °C	COC(=O)c1nc(NC(C)=O)sc1-c1ccccc1
171 °C	Nc1nnc(C(F)(F)C(Cl)Cl)o1
132 to 133 °C	O=C(NCC1CC1)N1CC(Oc2cccc(C(F)(F)F)c2)C1
173 to 175 °C	CCOC(=O)c1ccc(CNC(N)=O)cc1
39 to 40 °C	CCCCCCCCCCCCCCOc1ccc(C(=O)OCC)o1
95 to 98 °C	CC(Sc1ccc(Cl)cc1Cl)C(=O)O (racemic)

The next lines start with the compound.

SMILES	melting point
CC(C)(C)CC1N(C(c2ccccc2)C(O)c2ccccc2)C(C(=O)NC2CCC(O)CC2)C(c2cccc(Cl)c2F)C12C(=O)Nc1cc(Cl)ccc12 (stereo not given)	190 °C
CN1CCc2c(cccc2NC(=O)c2ccccc2F)C1	112 °C
Cc1ccc(Oc2ccc([N+](=O)[O-])cc2-c2ncon2)c(O)c1	159 to 160 °C
COc1ccc(OCC(O)CNC(C)(C)C)c(C)c1C (stereo not given)	73 to 75 °C
CCOc1ccc(CC2CCN(CCCCNC(=O)c3ccc(-c4ccc(C(F)(F)F)cc4)cc3)CC2)c(OCC)c1	136 to 137 °C
CC(=O)c1ccc(OCCOc2ccc3ccccc3c2)cc1C	128 to 130 °C
O=C(O)c1c2c(nc3ccc(F)cc13)-c1ccc(-c3ccccc3C(F)(F)F)cc1CCC2	> 300 °C
CC(CS)C(=O)N(CC(=O)O)C1CCCCC1 (stereo not given)	158 to 160 °C
Cc1ccc(Cc2ccc(-c3ccccc3)cc2)cc1	87 °C
COc1cc2c(cc1O)/C(=N/OCc1ccc([N+](=O)[O-])cc1)CCC2	125 to 127 °C
CCOC(=O)N1CCN(C2=Nc3ccc(Br)c4cccc2c34)CC1	170 to 174 °C
N#Cc1cc(Oc2ccc(Cl)cc2Cl)c(O)cc1Cl	145 to 150 °C
CCCCCCCCNC(=O)OC1CCN(C(=O)Oc2ccc(Oc3ccccc3)cc2)CC1	73 to 75 °C
CCC(=O)C1=C(O)CC(c2ccc3sccc3c2)CC1=O (stereo not given)	134 °C
CCc1nc2c(N)nc(C)c(C)c2n1CCOCCN1CCCS1(=O)=O	157 to 159 °C
O=C(O)c1ncsc1-c1ccccc1	189 to 190 °C

SMILES	melting point
CC(=O)Nc1ccc(Nc2ccccc2[N+](=O)[O-])cc1	164 to 166 °C
CC(=O)CC(=O)C=Cc1ccc2[nH]ccc2c1	136 to 137 °C
O=c1oc2c(-c3ccccc3)cccc2c(OCCN2CCOCC2)c1-c1ccccc1	106 to 108 °C
COCCN(C)c1nnc(-c2ccc(-c3ccccc3)nc2)n1-c1ccccc1C#N	148 to 149 °C
COc1cc2c(c(Cl)c1Cl)C(=O)C(c1ccccc1)(c1ccccc1)C2	172 to 174 °C
N#CC(CCN1C2CCC1CC2)(c1ccccc1)c1ccccc1	79 to 81 °C
CCOC(=O)c1c(C)cc2c(c1C)c(=O)n(-c1ccccc1Cl)c(=O)n2CC(=O)NCCN(CC)CC	193 to 194 °C
CNC(=O)c1cc2c(Oc3ccc(C(=O)N4CCOCC4)cc3)cncc2s1	173 to 175 °C
Cc1nnc2ccc(-c3ccc(N)c(C(F)(F)F)c3)nn12	240 to 242 °C
COc1ccccc1Oc1c(Cl)nc(-c2cccs2)nc1Cl	118 to 120 °C
CCc1cc2c(s1)-n1c(C)nnc1C(CCC(=O)Nc1ccccc1)N=C2c1ccc(Cl)cc1 (stereo not given)	183 to 185 °C
Cc1ccc(N2CCNCC2)c2c1CC[C@@H](NC(=O)c1ccc(N3CCOCC3)cc1)C2	207 to 210 °C
CN1CC(CCN2CCN(c3ccc(Cl)cc3)CC2)OC1=O (stereo not given)	113 to 114 °C
COc1ccc2c(c1)C(=O)C(Cc1cccc(NS(=O)(=O)C(F)(F)F)c1)CC2 (stereo not given)	152 to 154 °C
CN(C(=N)Nc1ncccc1OCc1c(F)cccc1F)c1ccc(Cl)cc1	100 to 102 °C
